Measurements taken from patent US12473289B2, “Heterocyclic compounds as delta-5 desaturase inhibitors and methods of use” (Amgen Inc., priority 2019, dated 2025).

target: Delta-5-Desaturase (D5D) (Homo sapiens (Human), UniProt O60427); test: In vitro measurement of Delta-5-Desaturase inhibitory activity using DGLA-CoA and Arachidonyl-CoA mass spectrometric assays; type: biochemical; settings: membrane preparations of D5D-overexpressing HEK293 6E cells; averaged over at least two independent runs
Sequence (O60427 whole entry, species assumed): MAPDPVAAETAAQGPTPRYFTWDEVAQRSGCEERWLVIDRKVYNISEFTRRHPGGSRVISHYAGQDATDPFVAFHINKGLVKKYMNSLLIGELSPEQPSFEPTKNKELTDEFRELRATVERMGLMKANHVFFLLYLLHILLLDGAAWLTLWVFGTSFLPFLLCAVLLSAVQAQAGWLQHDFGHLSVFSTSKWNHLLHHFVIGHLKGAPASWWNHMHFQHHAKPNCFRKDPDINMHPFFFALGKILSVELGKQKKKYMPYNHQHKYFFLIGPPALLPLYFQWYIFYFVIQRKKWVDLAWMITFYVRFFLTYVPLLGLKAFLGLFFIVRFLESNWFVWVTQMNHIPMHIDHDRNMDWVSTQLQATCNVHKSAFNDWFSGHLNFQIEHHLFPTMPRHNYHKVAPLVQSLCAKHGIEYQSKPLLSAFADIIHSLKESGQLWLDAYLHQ
Procedure: In vitro Measurement of Delta-5-Desaturase Inhibitory Activity using DGLA-CoA and Arachidonyl-CoA Mass Spectrometric Assays
Membrane preparations of D5D-overexpressing HEK293 6E cells were prepared in which the total protein concentration was 5.6 mg/mL. Stock D5D membrane preparations were diluted in D5D assay buffer (25 mM 2-amino-2-(hydroxymethyl)-1,3-propanediol, pH 7.5 containing 10 mM MgCl2, 1 mM octyl glucoside (SigmaAldrich 0-8001), 1 mM tris(2-carboxyethyl)phosphine hydrochloride (SigmaAldrich 646547)) to a final D5D membrane concentration of 10 μg/mL in an assay plate containing serially diluted test compounds. To 15 μL of this D5D preparation was added 15 μL of a substrate solution (0.25 mM NADH (nicotinamide adenine dinucleotide, Roche Diag. 10107735001), 0.25 mM adenosine triphosphate (SigmaAldrich A-3377), 0.05 mM coenzyme A hydrate (SigmaAldrich C-4282), and 0.01 mM DGLA (dihomo-g-linolenic acid, Sigma E-4504) in the same D5D assay buffer. After one-hour incubation at ambient temperature acetonitrile (30 μL) was added to quench the reaction and plates were centrifuged for 10 min @3,000 rpm. Mass spectrometric analysis involved a Rapidfire 360 SPE system coupled to an ABSciex API4000 Triple Quadrupole mass spectrometer using a C18 SPE cartridge (G9203-80105) with ionization in negative mode (solvent A=100% water; solvent B=100% acetonitrile, each solvent containing 5 mM ammonium acetate). DGLA-CoA and Arachidonyl-CoA were detected by multiple reaction monitoring (MRM) of the doubly charged parent ions at m/z 526.6 and 525.6, respectively.
Sx is value from unknown sample, So is value from DMSO alone and Sc is value from no enzyme well. For CRC analysis, the % of inhibitions were analyzed with 4 Parameter Logistic Model or Sigmoidal Dose-Response Model using XLfit (IDBS, Guilford, UK). The potency of the test item was expressed as IC50 nM, corresponding to the test item concentration able to inhibit the 50% of the enzyme maximal response. IC50 values were averaged values determined by at least two independent runs.
This assay may be used to test any of the compounds described herein to assess and characterize a compound's ability to inhibit D5D.

Compound	IC50
COc1cc2nc(C(F)(F)F)c(-c3ccc(OCC(F)(F)F)cc3)c(=O)n2cc1F [Example 39-57, 7-fluoro-8-methoxy-3-[4-(2,2,2-trifluoroethoxy)phenyl]-2-(trifluoromethyl)-4H-pyrido[1,2-a]pyrimidin-4-one]	4.1 nM
COc1ccn2c(=O)c(-c3cnn(CC(F)(F)F)c3)c(C(F)(F)F)nc2c1 [Example 1-74, 8-methoxy-3-(1-(2,2,2-trifluoroethyl)-1H-pyrazol-4-yl)-2-(trifluoromethyl)-4H-pyrido[1,2-a]pyrimidin-4-one]	27.6 nM
COc1ccn2c(=O)c(-c3ccc(O[C@H](C)C#N)cc3)c(C(F)(F)F)nc2n1 [Example 8-6, (2R)-2-(4-(8-methoxy-4-oxo-2-(trifluoromethyl)-4H-pyrimido[1,2-a]pyrimidin-3-yl)phenoxy)propanenitrile]	23.5 nM
CC(C)(O)c1ccn2c(=O)c(-c3cnn(CC(F)(F)C(F)(F)F)c3)c(C(F)(F)F)nc2c1 [Example 39-7, 8-(2-hydroxypropan-2-yl)-3-[1-(2,2,3,3,3-pentafluoropropyl)-1H-pyrazol-4-yl]-2-(trifluoromethyl)-4H-pyrido[1,2-a]pyrimidin-4-one]	1430 nM
COc1ccn2c(=O)c(-c3ccc(OCC(F)(F)F)nc3)c(C(F)F)nc2c1 [Example 1-13, 2-(difluoromethyl)-8-methoxy-3-(6-(2,2,2-trifluoroethoxy)-3-pyridinyl)-4H-pyrido[1,2-a]pyrimidin-4-one]	34.2 nM
Cc1ccc2nc(C(F)(F)F)c(-c3cnc(OCC(F)(F)F)nc3)c(=O)n2n1 [Example 39-36, 7-methyl-3-[2-(2,2,2-trifluoroethoxy)pyrimidin-5-yl]-2-(trifluoromethyl)-4H-pyrimido[1,2-b]pyridazin-4-one]	> 67000 nM
O=C(O)c1ccn2c(=O)c(-c3cnn(CC(F)(F)C(F)(F)F)c3)c(C(F)(F)F)nc2c1 [Example 1-21, 4-oxo-3-(1-(2,2,3,3,3-pentafluoropropyl)-1H-pyrazol-4-yl)-2-(trifluoromethyl)-4H-pyrido[1,2-a]pyrimidine-8-carboxylic acid]	3390 nM
COc1ccn2c(=O)c(-c3cnc(OCC(F)(F)F)c(F)c3)c(C(F)(F)F)nc2c1 [Example 7-3, 3-(5-fluoro-6-(2,2,2-trifluoroethoxy)-3-pyridinyl)-8-methoxy-2-(trifluoromethyl)-4H-pyrido[1,2-a]pyrimidin-4-one]	4050 nM
[2H]C([2H])([2H])n1c(=O)ccn2c(=O)c(-c3ccc(OCC(F)(F)F)cc3)c(C(F)(F)F)nc12 [Example 11-1, 1-(Methyl-d3)-7-(4-(2,2,2-trifluoroethoxy)phenyl)-8-(trifluoromethyl)-2H-pyrimido[1,2-a]pyrimidine-2,6(1H)-dione]	48.2 nM
COc1ccn2c(=O)c(-c3ccc(OCC(F)(F)F)cc3)c(C)nc2c1 [Example 1-67, 8-methoxy-2-methyl-3-(4-(2,2,2-trifluoroethoxy)phenyl)-4H-pyrido[1,2-a]pyrimidin-4-one]	34.2 nM
COc1ccn2c(=O)c(-c3ccc(OCC(F)(F)C(F)F)cc3)c(C(F)(F)F)nc2c1 [Example 9-1, 8-Methoxy-3-(4-(2,2,3,3-tetrafluoropropoxy)phenyl)-2-(trifluoromethyl)-4H-pyrido[1,2-a]pyrimidin-4-one]	11.1 nM
CCNC(=O)c1ccn2c(=O)c(-c3ccc(OCC(F)(F)F)cc3)c(C(F)(F)F)nc2c1 [Example 12-4, N-ethyl-4-oxo-3-(4-(2,2,2-trifluoroethoxy)phenyl)-2-(trifluoromethyl)-4H-pyrido[1,2-a]pyrimidine-8-carboxamide]	685 nM
O=c1c(-c2cnn(CC(F)(F)C(F)(F)F)c2)c(C(F)(F)F)nc2cnc(Cl)cn12 [Example 39-35, 7-chloro-3-[1-(2,2,3,3,3-pentafluoropropyl)-1H-pyrazol-4-yl]-2-(trifluoromethyl)-4H-pyrazino[1,2-a]pyrimidin-4-one]	13.4 nM
COc1ccn2c(=O)c(-c3cnn(CCCC(F)(F)F)c3)c(C(F)F)nc2c1 [Example 1-16, 2-(difluoromethyl)-8-methoxy-3-(1-(4,4,4-trifluorobutyl)-1H-pyrazol-4-yl)-4H-pyrido[1,2-a]pyrimidin-4-one]	383 nM
CNc1ccn2c(=O)c(-c3ccc(OCC(F)(F)F)cc3)c(C(F)(F)F)nc2n1 [Example 14-1, 8-(Methylamino)-3-(4-(2,2,2-trifluoroethoxy)phenyl)-2-(trifluoromethyl)-4H-pyrimido[1,2-a]pyrimidin-4-one]	40.9 nM
O=c1c(-c2ccc(OCC(F)(F)F)c(Cl)c2)c(C(F)(F)F)nc2ccccn12 [Example 5-2, 3-(3-chloro-4-(2,2,2-trifluoroethoxy)phenyl)-2-(trifluoromethyl)-4H-pyrido[1,2-a]pyrimidin-4-one]	157 nM
O=c1c(-c2cnn(CC(F)(F)C(F)(F)F)c2)c(C(F)(F)F)nc2cc(O)c(F)cn12 [Example 43, 7-Fluoro-8-hydroxy-3-[1-(2,2,3,3,3-pentafluoropropyl)-1H-pyrazol-4-yl]-2-(trifluoromethyl)-4H-pyrido[1,2-a]pyrimidin-4-one]	742 nM
COc1ccn2c(=O)c(-c3ccc(OC(C)C#N)cc3)c(C(F)(F)F)nc2c1 (centres unmarked) [Example 8-4, 2-(4-(8-methoxy-4-oxo-2-(trifluoromethyl)-4H-pyrido[1,2-a]pyrimidin-3-yl)phenoxy)propanenitrile]	16.2 nM
COc1cn2c(=O)c(-c3cnn(CC(F)(F)C(F)(F)F)c3)c(C(F)(F)F)nc2cn1 [Example 39-37, 7-methoxy-3-[1-(2,2,3,3,3-pentafluoropropyl)-1H-pyrazol-4-yl]-2-(trifluoromethyl)-4H-pyrazino[1,2-a]pyrimidin-4-one]	61 nM
O=c1c(-c2cnn(CC(F)(F)C(F)(F)F)c2)c(C(F)(F)F)nc2ccc(N3CCC3)cn12 [Example 39-28, 7-(azetidin-1-yl)-3-[1-(2,2,3,3,3-pentafluoropropyl)-1H-pyrazol-4-yl]-2-(trifluoromethyl)-4H-pyrido[1,2-a]pyrimidin-4-one]	> 67000 nM
NCc1ccn2c(=O)c(-c3cnn(CC(F)(F)C(F)(F)F)c3)c(C(F)(F)F)nc2c1 [Example 16-2, 8-(aminomethyl)-3-(1-(2,2,3,3,3-pentafluoropropyl)-1H-pyrazol-4-yl)-2-(trifluoromethyl)-4H-pyrido[1,2-a]pyrimidin-4-one]	137 nM
Cc1ccc2nc(C(F)(F)F)c(-c3cnn(CC(F)(F)C(F)(F)F)c3)c(=O)n2c1 [Example 39-19, 7-methyl-3-[1-(2,2,3,3,3-pentafluoropropyl)-1H-pyrazol-4-yl]-2-(trifluoromethyl)-4H-pyrido[1,2-a]pyrimidin-4-one]	1.7 nM
COc1ccn2c(=O)c(-c3nnn(CC(F)(F)C(F)(F)F)c3I)c(C(F)(F)F)nc2c1 [Example 52, 3-[5-Iodo-1-(2,2,3,3,3-pentafluoropropyl)-1H-1,2,3-triazol-4-yl]-8-methoxy-2-(trifluoromethyl)-4H-pyrido[1,2-a]pyrimidin-4-one]	158 nM
CCCc1ccc(-c2c(C(F)(F)F)nc3cc(OC)ccn3c2=O)cn1 [Example 7-6, 8-methoxy-3-(6-propyl-3-pyridinyl)-2-(trifluoromethyl)-4H-pyrido[1,2-a]pyrimidin-4-one]	302 nM
CN(C)Cc1ccn2c(=O)c(-c3cnn(CC(F)(F)C(F)(F)F)c3)c(C(F)(F)F)nc2c1 [Example 26, 8-((Dimethylamino)methyl)-3-(1-(2,2,3,3,3-pentafluoropropyl)-1H-pyrazol-4-yl)-2-(trifluoromethyl)-4H-pyrido[1,2-a]pyrimidin-4-one]	128 nM
[2H]C([2H])([2H])Oc1ccn2c(=O)c(-c3ccc(OCC4CC4)cc3)c(C(F)(F)F)nc2c1 [Example 1-65, 3-(4-(cyclopropylmethoxy)phenyl)-8-(methyloxy-d3)-2-(trifluoromethyl)-4H-pyrido[1,2-a]pyrimidin-4-one]	3.2 nM
COc1ccn2c(=O)c(-c3ccc(OC(F)(F)F)cc3)c(C(F)(F)F)nc2c1 [Example 1-49, 8-methoxy-3-(4-(trifluoromethoxy)phenyl)-2-(trifluoromethyl)-4H-pyrido[1,2-a]pyrimidin-4-one]	5.4 nM
COc1ccn2c(=O)c(-c3ccc(OCC(F)(F)F)c(F)c3)c(C(F)F)nc2c1 [Example 1-12, 2-(difluoromethyl)-3-(3-fluoro-4-(2,2,2-trifluoroethoxy)phenyl)-8-methoxy-4H-pyrido[1,2-a]pyrimidin-4-one]	9.9 nM
Cc1cc2nc(C(F)(F)F)c(-c3cnn(CCC(F)(F)F)c3)c(=O)n2nc1C [Example 39-47, 7,8-dimethyl-2-(trifluoromethyl)-3-[1-(3,3,3-trifluoropropyl)-1H-pyrazol-4-yl]-4H-pyrimido[1,2-b]pyridazin-4-one]	65.6 nM
